# Experimental data published in ChEMBL document CHEMBL4052616, “Isoniazid derivatives and their anti-tubercular activity” (Eur J Med Chem, 2017).
# Experiments:
# Type in all cases: functional
# [1] = system: Mycobacterium tuberculosis; assay: Antitubercular activity against Mycobacterium tuberculosis H37Rv after 10 days by tube dilution method; conditions: 240 h
# [2] = system: Mycobacterium tuberculosis; assay: Antimycobacterial activity against human sensitive Mycobacterium tuberculosis measured after six weeks
# [3] = system: Mycobacterium tuberculosis; assay: Antimycobacterial activity against Bovin sensitive Mycobacterium tuberculosis measured after six weeks
# [4] = system: Mycobacterium tuberculosis; assay: Antitubercular activity against Mycobacterium tuberculosis H37Rv
# [5] = system: Mycobacterium tuberculosis; assay: Antimycobacterial activity against Mycobacterium tuberculosis H37Rv ATCC 27294 at < 0.1 ug/mL by microplate alamar blue assay
# [6] = system: Mycobacterium tuberculosis; assay: Antimycobacterial activity against Mycobacterium tuberculosis H37Rv after 10 to 12 days by serial dilution method
# Mycobacterium avium = assay: Antimycobacterial activity against Mycobacterium avium by serial dilution method
# [7] = system: Mycolicibacterium smegmatis; assay: Antimycobacterial activity against Mycobacterium smegmatis ATCC 607 by serial dilution method
# [8] = system: Mycobacterium intracellulare; assay: Antimycobacterial activity against Mycobacterium intracellulare by serial dilution method
# [9] = system: Mycolicibacterium fortuitum; assay: Antimycobacterial activity against Mycobacterium fortuitum by serial dilution method
# Mycobacterium kansasii = assay: Antimycobacterial activity against Mycobacterium kansasii by serial dilution method
# Mycolicibacterium phlei = assay: Antimycobacterial activity against Mycobacterium phlei by serial dilution method
# [10] = system: Mycobacterium tuberculosis; assay: Antimycobacterial activity against Mycobacterium tuberculosis H37Rv by NCCLS method
# [11] = system: Mycobacterium tuberculosis; assay: Potency index, ratio of pyrazinamide MIC to compound MIC for Mycobacterium tuberculosis H37Rv
# [12] = system: Mycobacterium tuberculosis; assay: Antimycobacterial activity against Mycobacterium tuberculosis H37Rv after 5 days by microplate alamar blue assay; conditions: 120 h
# [13] = system: Mycobacterium tuberculosis; assay: Growth inhibition of Mycobacterium tuberculosis H37Rv ATCC 27294 measured after 5 to 8 days
# [14] = system: Mycobacterium tuberculosis; assay: Antimycobacterial activity against Mycobacterium tuberculosis H37Rv ATCC 27294 measured after 5 to 8 days
# [15] = system: Mycobacterium tuberculosis; assay: Antimycobacterial activity against Mycobacterium tuberculosis clinical isolate 1889 by broth dilution method
# [16] = system: Mycobacterium tuberculosis; assay: Antimycobacterial activity against Mycobacterium tuberculosis H37Rv by serial dilution method
# [17] = system: Mycobacterium tuberculosis; assay: Antimycobacterial activity against Mycobacterium tuberculosis infected in C57BL/6 mouse assessed as colony forming units per lung at 25 mg/kg administered via gavage for 2 days measured last post dose (reference value: 6.53 +/- 0.16 log10CFU)
# [18] = system: Mycobacterium tuberculosis; assay: Antimycobacterial activity against Mycobacterium tuberculosis clinical isolate 35829 by broth dilution method
# [19] = system: Mycobacterium tuberculosis; assay: Antimycobacterial activity against Mycobacterium tuberculosis clinical isolate 303 by broth dilution method
# [20] = system: Mycobacterium tuberculosis; assay: Antimycobacterial activity against Mycobacterium tuberculosis Academia by serial dilution method
structure (smiles),measurement,setting,value
O=C(NNc1nc(Cl)nc(NNC(=O)c2ccncc2)n1)c1ccncc1,MIC,[1],20 µg/mL
O=C(N/N=C1\C(=O)N(Cc2ccccc2)c2ccccc21)c1ccncc1,MIC,[2],2.7 to 3.5 µg/mL
same,MIC,[3],2.7 to 3.5 µg/mL
O=C(NN1C(=O)C(Cl)C1c1cc2ccccc2nc1Cl)c1ccncc1 (configuration not stated),MIC,[4],12.5 µg/mL
C[C@]12CC/C(=N\NC(=O)c3ccncc3)C=C1CC[C@@H]1[C@@H]2CC[C@]2(C)/C(=N/NC(=O)c3ccncc3)CC[C@@H]12,inhibition (INH),[5],>95%
Cc1ccc2nc(Cl)c(C3C(Cl)C(=O)N3NC(=O)c3ccncc3)cc2c1 (configuration not stated),MIC,[4],12.5 µg/mL
C[C@]12CC[C@H]3[C@@](CC[C@@H]4[C@]3(C)CCC[C@@]4(C)C(=O)O)(C/C1=N/NC(=O)c1ccncc1)C2,MIC,[6],10 to 20 µg/mL
C[C@]12CC[C@@H](O)C[C@@H]1CC[C@@H]1[C@@H]2CC[C@]2(C)/C(=N/NC(=O)c3ccncc3)CC[C@@H]12,MIC,Mycobacterium avium,3.5 to 1000 µg/mL
same,MIC,[7],3.5 to 1000 µg/mL
same,MIC,[8],3.5 to 1000 µg/mL
same,MIC,[9],3.5 to 1000 µg/mL
same,MIC,Mycobacterium kansasii,3.5 to 1000 µg/mL
same,MIC,Mycolicibacterium phlei,3.5 to 1000 µg/mL
Cc1c(C(=O)NNC(=O)c2ccncc2)nn(-c2ccc(Cl)cc2Cl)c1-c1ccc(Cl)cc1,MIC,[10],12.5 µg/mL
same,Ratio,[11],2
COc1nc2ccc(Cl)cc2cc1C1C(Cl)C(=O)N1NC(=O)c1ccncc1 (configuration not stated),MIC,[4],3.12 to 6.25 µg/mL
COc1cc(C2SCC(=O)N2NC(=O)c2ccccc2)ccc1O (configuration not stated),MIC,[12],0.31 µg/mL
O=C(NNc1nc(Cl)nc(NC(=O)c2cnccn2)n1)c1ccncc1,MIC,[1],20 µg/mL
CCn1cc(C(=O)O)c(=O)c2cc(F)c(N3CCN(CN4C(=O)/C(=N\NC(=O)c5ccncc5)c5ccccc54)CC3)cc21,growth inhibition (GI),[13],100%
same,MIC,[14],< 6.25 µg/mL
C=C1C[C@]23CC[C@@H]4[C@](C)(CCC[C@@]4(C)C(=O)O)[C@H]2CC[C@]1(O[C@@H]1O[C@H](CO)[C@@H](O)[C@H](O)[C@H]1O[C@@H]1O[C@H](CO)[C@@H](O)[C@H](O)[C@H]1O)C3,MIC,[6],3.75 to 5 µg/mL
C=C1C[C@]23CC[C@@H]4[C@](C)(CCC[C@@]4(C)C(=O)NNc4cccnc4)[C@H]2CC[C@]1(O[C@@H]1O[C@H](COC(C)=O)[C@@H](OC(C)=O)[C@H](OC(C)=O)[C@H]1O[C@@H]1O[C@H](COC(C)=O)[C@@H](OC(C)=O)[C@H](OC(C)=O)[C@H]1O)C3,MIC,[6],10 µg/mL
C[C@]12CC=CC[C@@H]1CC[C@@H]1[C@@H]2CC[C@]2(C)/C(=N/NC(=O)c3ccncc3)CC[C@@H]12,inhibition (INH),[5],>95%
COc1ccc(/C=C2\SC(=O)N(CNNC(=O)c3ccncc3)C2=O)cc1,MIC,[4],50 to 100 µg/mL
COc1nc2ccc(C)cc2cc1C1C(Cl)C(=O)N1NC(=O)c1ccncc1 (configuration not stated),MIC,[4],3.12 to 6.25 µg/mL
CC[C@@H](CO)NCCN[C@@H](CC)CO [ETHAMBUTOL],MIC,[10],3.25 µg/mL
COc1c(N2CCNC(C)C2)c(F)cc2c(=O)c(C(=O)O)cn(C3CC3)c12 (configuration not stated) [GATIFLOXACIN],MIC,[4],3.12 µg/mL
NNC(=O)c1ccncc1 [ISONIAZID],MIC,[10],0.05 µg/mL
same,MIC,[15],4 to 8 µg/mL
same,MIC,[2],1.4 µg/mL
same,MIC,[12],0.2 µg/mL
same,MIC,[3],1.4 µg/mL
same,MIC,[16],0.015 to 0.06 µg/mL
same,Activity,[17],5.34 log10CFU
same,growth inhibition (GI),[13],95%
same,MIC,[6],0.1 µg/mL
same,MIC,[18],4 to 8 µg/mL
same,MIC,[19],4 to 8 µg/mL
same,MIC,[4],1.45 µM
same,MIC,[14],0.025 to 0.05 µg/mL
same,MIC,[20],0.015 to 0.06 µg/mL
NC(=O)c1cnccn1 [PYRAZINAMIDE],MIC,[10],50 µg/mL
same,MIC,[6],20 µg/mL
CO[C@H]1/C=C/O[C@@]2(C)Oc3c(C)c(O)c4c(O)c(c(/C=N/N5CCN(C)CC5)c(O)c4c3C2=O)NC(=O)/C(C)=C\C=C\[C@H](C)[C@H](O)[C@@H](C)[C@@H](O)[C@@H](C)[C@H](OC(C)=O)[C@@H]1C [RIFAMPIN],MIC,[10],0.1 µg/mL
same,MIC,[12],1 µg/mL
same,growth inhibition (GI),[13],86%
same,MIC,[14],0.25 µg/mL
